What all share (assay): NCI-60 cell line screen, 48 h
Assay [1] has as its system DMS 114 small cell lung.
Assay [2] deals with DMS 273 small cell lung.
For assay [3], the system named is HOP-18 NSCLC.
Assay [4] has as its system MOLT-4 leukemia.
Assay [5] has as its system 786-0 renal.
Assay [6] has as its system DLD-1 colon.
Assay [7] relates to XF 498 CNS.
Assay [8] concerns U251 CNS.
The subject of assay [9] is LXFL 529 NSCLC.
The subject of assay [10] is M19-MEL melanoma.
Assay [11] has as its system HOP-62 NSCLC.
Assay [12] deals with KM20L2 colon.
The subject of assay [13] is CCRF-CEM leukemia.
The subject of assay [14] is SK-MEL-5 melanoma.
The test system of assay [15] is SNB-78 CNS.

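Assay format: 96-well plates, 48-hour exposure. TGI: concentration producing complete growth inhibition.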

In the case of `CC(=O)NC(CCCNC(=O)N(CCCl)N=O)C(=O)NCc1ccccc1` (stereo not given), the TGI in [1], in [2], in assay [3], in assay [4], in assay [5] and in [6] was above 100 µM throughout. Further, the TGI in assay [7], in [8], in assay [9], in assay [10], in assay [11] and in [12] was above 100 µM in each case. In assay [13], the TGI was above 100 µM.
For `C/C=C1\CN2CCc3c([nH]c4ccccc34)C2CC1C(=O)OC` (stereo not given), the TGI in [2], in assay [4], in assay [5], in [6], in assay [7] and in assay [8] was above 322 µM each time. Further, the TGI in [9], in assay [14], in assay [11], in [12] and in assay [13] was above 322 µM each time.
Take `CCCCCCCOc1ccc(/C=C\c2cc[n+](CCCCCCCC[n+]3ccc(/C=C\c4ccc(OCCCCCCC)cc4)cc3)cc2)cc1`: the TGI in [1] was 36 µM; in assay [2], 71.1 µM; in assay [3], 28.4 µM; in assay [4], 62.2 µM; in [5] it was 32 µM; in [6] it was 67 µM. In addition, the TGI in assay [8] is 24.6 µM; in [15], above 100 µM; in assay [9] it was 34.8 µM; in assay [10], above 100 µM; in [14], 27.7 µM; in [11], above 100 µM. Further, the TGI in [12] is 63.1 µM; in assay [13], above 100 µM.
With `c1ccc2c(c1)C1CCCCCC21N1CCOCC1` (stereo not given), the TGI in assay [1], in [2], in [4], in assay [5], in assay [6] and in assay [8] was above 100 µM throughout. Also, the TGI in [15], in [9], in assay [10], in assay [14], in [11] and in assay [12] was above 100 µM throughout. This compound also came in with a TGI in assay [13] above 100 µM.
`C=C(Br)CNC(=O)Nc1ccc(Cl)c(Cl)c1`: the TGI in [4] was 73.9 µM; in [5], 36 µM; in [8], 66 µM; in [14], 27.1 µM; in [11], 48.1 µM; in [13] it was 45.1 µM.
Regarding `COc1cc2c3c(c1)CCCN3CCC2`, the TGI in assay [4], in [5], in [8], in assay [14], in assay [11] and in [13] was above 10 µM throughout.
`CC(C)(C)c1cc2c(OC/C=C/c3ccccc3)c(c1)Cc1cc(C(C#N)(OC/C=C/c3ccccc3)OC/C=C/c3ccccc3)cc(c1OC/C=C\c1ccccc1)Cc1cc(C(C)(C)C)cc(c1OC/C=C/c1ccccc1)Cc1cc(C(C#N)(OC/C=C\c3ccccc3)OC/C=C/c3ccccc3)cc(c1OC/C=C\c1ccccc1)C2` (stereo not given): the TGI in assay [4], in assay [5], in [8], in [14], in assay [11] and in [13] was above 100 µM each time.
Turning to `CCCP1(=O)C=C(C)C(=C(Cl)Cl)C(C)=C1` (stereo not given), the TGI in assay [1] is above 100 µM; in assay [3] it was above 100 µM; in assay [4] it was 98.6 µM; in assay [5], above 100 µM; in [6], above 100 µM; in assay [8], above 100 µM. Also, the TGI in assay [15] was above 100 µM; in assay [9], above 100 µM; in assay [10] it was above 100 µM; in [14], 49.1 µM; in assay [11] it was above 100 µM; in assay [12], 47.1 µM. This compound registered a TGI in [13] above 100 µM.
On to `CN(C)c1ccc(C(Cc2ccccc2)C2NC(=S)NC2=O)cc1` (stereo not given), for which the TGI in assay [4], in [5], in assay [8], in assay [14], in assay [11] and in assay [13] was above 100 µM throughout.
Consider `O=c1[nH]cc(COCCCO)c(=O)[nH]1`, for which the TGI in [2], in [3], in assay [4], in [5], in assay [6] and in [7] was above 100 µM throughout. The TGI in [8], in assay [15], in assay [9], in [10], in [14] and in assay [11] was above 100 µM throughout. Besides, the TGI in [12] and in assay [13] was above 100 µM each time.
With `COC1=CC(=O)C2=C(C1=O)[C@H]1CC[C@]3(C)[C@@H](O)CC[C@H]3[C@@H]1CC2`, the TGI was found to be 20.8 µM in assay [4]; 37.8 µM in [5]; 31.3 µM in assay [8]; 28.8 µM in [14]; 29.7 µM in assay [11]; 86.2 µM in assay [13].
`CSc1nc2c(c(=O)[nH]1)N=C(c1ccc([N+](=O)[O-])cc1)CC(c1ccccc1)N2` (stereo not given): the TGI was above 100 µM in [4]; above 100 µM in [5]; above 100 µM in [8]; 55.6 µM in assay [14]; above 100 µM in assay [11]; above 100 µM in assay [13].
For `CCN1C(=O)c2cc(OC)c(OC)cc2C(=O)C12OC(=O)c1cc3c(cc12)OCO3` (stereo not given), the TGI in assay [4] is above 100 µM; in assay [5], 53.7 µM; in assay [8], above 100 µM; in assay [14] it was above 100 µM; in assay [11], above 100 µM; in assay [13], above 100 µM.

Source of the values: PubChem BioAssay (NCI).
